Data from publication PMC5007443, “TNIK inhibition abrogates colorectal cancer stemness” (Nature Communications, 2016).

How the values were obtained:
[1] = tested on: HCT116 cells; assay: CSC surface marker flow cytometry in HCT116 cells; format: cell-based, human; details: HCT116, 1 µM, 96 hours
Method: Cells were collected with Accutase, washed with stain buffer (BD Pharmingen), resuspended in 100 μl stain buffer (5 × 10^5 cells per 100 μl), and incubated with fluorophore-conjugated antibodies or their corresponding isotype-matched control antibodies (Supplementary Table 4) at 4 °C for 30 min. The cells were then washed twice and resuspended in 500 μl of stain buffer. 7-Aminoactinomycin D (7AAD; BD Pharmingen) was added to the samples before analysis. Relative fluorescence intensities were measured using a Guava easy Cyte HT flow cytometer following exclusion of dead cells on the basis of 7AAD incorporation. Data analysis was performed using Guava InCyte software (Merck-Millipore). Experiments were performed in triplicate and repeated at least two times.

[2] = tested on: CD44 and Ki67 expression in xenografts; assay: Immunohistochemistry of spheroid #6 xenografts; format: in vivo, mouse; details: spheroid #6 xenografts resected after treatment
Method: Immunoperoxidase staining (Fig. 6g) was performed using the Ventana DABMap detection kit and an automated slide stainer (Discovery XT, Ventana Medical Systems)[56].

[3] = tested on: Wnt-target genes (AXIN2, MYC and CCND1); assay: Pharmacodynamics: Wnt-target gene expression in HCT116 xenografts, RT-PCR; format: in vivo, mouse; details: single oral dose 90 or 150 mg kg−1 NCB-0846 HCl
Method: Total RNA was prepared with an RNeasy Mini Kit (Qiagen). cDNA was synthesized using SuperScript II reverse transcriptase (Thermo Fisher Scientific) or a High-Capacity cDNA reverse transcription kit (Thermo Fisher Scientific) and subjected to TaqMan gene expression assay using pre-designed primer and probe sets (listed in Supplementary Table 3). Amplification data measured as an increase in reporter fluorescence were collected using the StepOne Real-Time PCR System (Thermo Fisher Scientific). The relative mRNA expression level normalized to the internal control (human/mouse β-actin (ACTB/Actb1) gene) was calculated by the comparative threshold cycle (CT) method. Experiments were performed in triplicate and repeated at least two times.

[4] = tested on: PDX COX021; assay: Patient-derived xenograft COX021 in Nu/Nu nude mice; format: in vivo, mouse; details: COX021, NCB-0846 HCl oral 45 or 90 mg/kg BID, 5-day on, 2-day off
Method: Patient-derived colorectal cancer xenografts […] were established by Shanghai ChemPartner. Female Nu/Nu nude mice aged 5–6 weeks were implanted subcutaneously with the xenografts and randomized into three treatment groups (10 mice per group) based on the developed tumour volume (∼200 mm^3).
Tumour volume was estimated based on the formula: (length × width^2)/2. The tumour volume (twice a week) and body weight (every day) of each mouse were recorded. The patient-derived spheroids and xenografts were established after obtaining informed consent from the donors.

[5] = tested on: TCF/LEF transcriptional activity of spheroid clone #6 Cl. 2; assay: Spheroid TCF/LEF GFP reporter assay; format: cell-based; details: Homo sapiens, read-out: IC50, reduction of cells expressing Wnt-driven GFP
Excerpt: Lentiviral gene transfer of the reporter gene was used to evaluate the TCF/LEF transcriptional activity of patient-derived spheroids due to their poor transfection efficiency. Spheroids were infected with TCF/LEF reporter lentiviral particles encoding the green fluorescent protein (GFP) gene under the control of the TCF/LEF-responsive promoter (Cignal Lenti TCF/LEF Reporter (GFP) (Qiagen)) or relevant negative control lentiviral particles (Cignal Lenti negative control (GFP) (Qiagen)) at a multiplicity of infection of 10 in the presence of 4 μg ml^−1 SureEntry Transduction Reagent (Qiagen) for 24 h. GFP-positive spheroids were cloned by limiting dilution in the presence of 2 μg ml^−1 puromycin (Sigma-Aldrich; Fig. 6a,b).
GFP-positive cells were detected using the Guava easy Cyte HT flow cytometer (Fig. 6c). Experiments were performed in triplicate and repeated at least two times.

[6] = tested on: TNIK, AXIN2, c-MYC, LRP6, LRP5 proteins; assay: Immunoblotting of TNIK, AXIN2, c-MYC, LRP6, LRP5 in HCT116 and DLD-1 cells; format: cell-based, human; details: HCT116 and DLD-1, 48 h
Method: Protein samples were fractionated by SDS–PAGE and blotted onto Immobilon-P membranes (Millipore) as described previously. After incubation with the primary antibodies (listed in Supplementary Table 4) at 4 °C overnight, the blots were detected with the relevant horseradish peroxidase-conjugated anti-mouse or anti-rabbit IgG antibody (Cell Signaling Technology) and Western lighting ECL Pro (PerkinElmer). Signals were visualized with the LAS-4010 system (GE Healthcare). Uncropped versions of the blots in Figs 2e and 3f are shown in Supplementary Fig. 15.

Which results are given for `O[C@H]1CC[C@@H](Oc2cccc3cnc(Nc4ccc5nc[nH]c5c4)nc23)CC1` [NCB-0846, cis-4-(2-(3H-benzo[d]imidazol-5-ylamino)quinazolin-8-yloxy)cyclohexanol]?
proportion of cells showing high expression of CSC surface markers (CD44, CD133, CD166, CD29 and EpCAM) [1]: reduced; CD44 expression in xenografts [2]: suppression; Ki67 expression in xenografts [2]: modest decrease; expression of Wnt-target genes (AXIN2, MYC and CCND1) in xenografts [3]: reduced; growth of the PDXs [4]: significantly suppressed; IC50 [5]: 480 nM; LRP6 and LRP5 protein expression [6]: downregulated; expression of TNIK, AXIN2 and cMYC at the protein level [6]: reduced
